According to patent US20240307346A1, “METHOD FOR TREATING OR PREVENTING A DISEASE OF INCOMPLETE IMMUNE RECONSTITUTION IN AIDS USING (5R)-5-HYDROXYTRIPTOLIDE” (PEKING UNION MEDICAL COLLEGE HOSPITAL, priority 2018, published 2024):
In brackets after ≈: the same amount, converted by molar mass.

Assays:
NF-κB = NF-κB luciferase reporter (p3κB-luc) assay in HEK293T cells; type: cell-based; conditions: for inhibition of the activity of the NF-κB signal pathway activated by TNF-α / inhibition of the activity of the background NF-κB signaling pathway: Comparative Example 2, HEK293T, FIG. 5; for inhibition of the activity of the NF-κB signal pathway activated by TNF-α: TNF-α 20 ng/ml; for inhibition of the activity of the background NF-κB signaling pathway: no TNF-α
Protocol: NF-κB driven […] expression plasmid (p3κB-luc, 100 ng) and internal reference plasmid pBgal (purchased from Bioonline: www.bioon.com.cn) (pSV-β-Galactosidase Control Vector, β-galactosidase expression plasmid, 5 ng) were transfected into HEK293T cells (purchased from ATCC). […] After another 24 hours, all cells were collected and lysed with reporter lysis buffer (purchased from Promega). Luciferase assay system (Promega) was used to detect luciferase activity. Beta-Glo Asaay system (Promega) was used to detect β-Galactosidase activity, and the inhibition effects of T8 on NF-κB activity was analyzed.
The NF-κB reporter gene plasmid p3κB-luc was transfected into HEK293T cells for expression, and pSV-β-Galactosidase Control Vector was co-transfected as transfection internal reference. The activation of NF-κB was induced by TNF-α treatment. T8 and triptolide were added respectively. The expression of NF-κB reporter gene was indicated by detecting luciferase activity, and the effect of T8 and triptolide on NF-κB activation induced by TNF-α was evaluated.
Cell transfection: HEK293T cells were transfected with lipofectamine 2000 Transfection Reagent according to the reagent instructions. 100 ng of plasmid was transfected with 1 μL of transfection reagent into each well of a 24-well cell cultureplate. The plasmid and the transfection reagent were diluted with […] of OPTI-MEM medium, respectively and then mixed together. The mixture was allowed to stand at room temperature for 5 minutes, and then added into the cells in each well. The resulting mixture was mixed gently, placed back into the 37° C. incubator, and the cells were cultured for a specified time.
Luciferase activity detection: NF-κB reporter gene plasmid p3κB-luc plasmid (100 ng), internal reference plasmid pSV-β-Galactosidase Control Vector (5 ng) were transfected into HEK293T cells. After 24 hours. TNF-α (20 ng/ml) was added (or not added) to stimulate the cells for 24 hours, and then the cells were collected and lysed with reporter lysis buffer. Luciferase assay system was used to detect luciferase activity. and Beta-Glo Asaay system was used to detect β-Galactosidase activity.

CD4+T-cells = test: CFSE proliferation of CD4+T-cells in PHA-P stimulated PBMC; type: cell-based, human; conditions: for inhibition of the proliferation of CD4+T-cells in healthy human peripheral blood: Comparative Example 4, PHA-P 5 μg/mL, 100 ng/mL, 72 hours, FIG. 7
Protocol: Healthy human peripheral blood mononuclear cells (PBMC) (purchased from ATCC) were cultured in RPMI-1640/10% FBS serum medium containing IL-2 (20IU). and then stained with CFSE (carboxyfluorescein diacetate succinimidy ester) (10 nM) at 37° C. for 10 minutes, washed twice with the above medium, followed by addition of PHA-P (phytohemagglutinin P) (5 μg/mL) to stimulate cell proliferation with or without addition of T8 compound (100 nM).
The cells were washed with the medium twice, PHA-P (5 μg/mL) was added, and the test compound T8 or triptolide (100 ng/mL each) was added at the same time. After 72 hours at 37° C. the cells were collected, stained with anti-CD4-PE antibody at 4°° C. for 30 minutes, and washed with FACS buffer twice. The cell proliferation was analyzed by flow cytometry.

MTT cytotoxicity test = type: cell-based; conditions: human, HEK293T cells, read-out: CC50 (50% Cytotoxic Concentration)
Protocol: MTT colorimetric method was used to detect the cytotoxicity. HEK293T cells were seeded into 96-well plates (1×10^4/100 μL/well), 100 μL of each concentration of the compounds (compound concentration refers to the figures) was added in triplicate. Control wells without compound were setting at the same time. The cells were incubated in a 37° C. 5% CO2 cell incubator for 72 hours. 100 μL of the supernatant was aspirated from each well and discarded, followed by addition of 20 μL of MTT solution (5 mg/mL) into the wells. […] The absorbance was measured at 595 nm. The CC50 value (50% Cytotoxic Concentration) was calculated, i.e., the concentration of the compound required for producing toxicity on 50% of HEK293T cells.

CD4 counts = test: Phase II placebo-controlled trial in HIV immunological non-responders: CD4 counts; type: in vivo, human; conditions: for participants with a CD4 count increase over 50 cells/mm^3: placebo 34.6%; for mean absolute increase of CD4 count from baseline: week 48, placebo 32; for CD4 count at Week 48: FAS, with ART
[1] = system: interferon-γ-induced protein 10 (IP-10); test: Phase II trial: serum IP-10; type: in vivo, human; parameters: mean change of serum interferon-γ-induced protein 10: unit not given here; conditions: placebo −22.8; for mean change of serum IP-10 level: Week 48
Protocol: (§1) The phase II, double-blind, randomized, placebo-controlled trial was conducted in adults patients with long-term suppressed HIV infection and suboptimal CD4 recovery, at nine hospitals in China.
(§2) The patients were 1:1:1 assigned to receive oral T8 0.5 mg or 1 mg daily, or placebo combined with antiretroviral therapy for 48 weeks. All study staff and participants were masked. The study drug was recommended to be taken in the morning on an empty stomach, and be separated from participants' daily ART. Participants were followed and assessed at Week 4, 12, 24, 36 and 48 of treatment. On each scheduled visit, the investigator would assess the participant's general status, newly-onset symptoms and signs, and adverse events.
(§3) The primary endpoints of the study included 1) Absolute change of CD4 counts from baseline to week 48: 2) Proportions of participants achieving a CD4 increase ≥50 cells/mm^3 from baseline to week 48: and 3) changes of selected inflammatory markers from baseline to week 48, including interferon-y-induced protein 10 (IP-10), high-sensitivity C-reactive protein (hsCRP), and IL-6.
The primary efficacy differences between treatments on CD4 counts and inflammatory marker level were assessed through the t-test and analysis of covariance (ANCOVA) model. The ANCOVA model, including the baseline CD4 counts as the covariate, study group and center as fixed factors, generated the Least square means (LSMEANs) and relative 95% confidence interval (95% CI) in both FAS and PPS.

[2] = system: high-sensitivity C-reactive protein (hsCRP); test: Phase II trial: hsCRP; type: in vivo, human; conditions: 1 mg daily (HT8), Week 48
Protocol: as §1, §2, §3

IL-6 = test: Phase II trial: IL-6; type: in vivo, human; conditions: 1 mg daily (HT8), Week 48
Protocol: as §1, §2, §3

CD8 T cells = test: Phase II trial: cellular activation of CD8 T cells (CD38, HLA-DR); type: in vivo, human; conditions: among the three groups (0.5 mg, 1 mg, placebo), 62 participants
Protocol: T-cell subsets were measured using CytoFlex flow cytometer (Beckman Coulter Life Science) at participating centers, including T cells (CD45+CD3+), CD4 T cells (CD45+CD3+CD4+), and CD8 T cells (CD45+CD3+CD8+). In PUMCH Lab. exploratory CD8 markers (CD45+CD3+CD8+CD38+ and CD45+CD3+CD8+HLA-DR+) were further measured for participants in three Beijing centers.

[3] = Phase II trial: safety (adverse events); type: in vivo, human; conditions: for participants with treatment-emergent adverse events (TEAEs): placebo 80.7%
Protocol: as §2
Safety endpoints included occurrence of adverse events (AEs) and serious adverse events (SAEs) over the study period. Adverse events included those related to the study drug; all serious adverse events; and abnormal laboratory test values at each study visit.
The efficacy analysis was based on the full analysis set (FAS), which included all randomized patients with at least one posttreatment efficacy assessment, and the per-protocol set (PPS), which included patients who completed the study with proper study drug exposure and without any major protocol violations. The safety analysis was based on the safety analysis set (SAS), which included all randomized patients who received at least one dose of study drug. All safety results were descriptive, listed and summarized.

HIV-1 = test: Phase II trial: plasma HIV-1 viral load; type: in vivo, human; conditions: all participants, with ART, 48 weeks
Protocol: Plasma HIV-1 viral load was measured at Peking Union Medical College Hospital (PUMCH) Lab by COBAS AmpliPrep/COBAS TaqMan V2.0 RT-PCR (Roche). The lower detection limit is 20 copies per milliliter.

CD4+T-cell subsets = test: Activation of CD4+T-cell subsets (CD38, HLA-DR expression by flow cytometry); conditions: for inhibition of immune activation of CD4+T-cell subsets by PMA+Ionomycin (CD38, HLA-DR): Comparative example 3, PMA 100 nM + Ionomycin 1 μM, 100 ng/ml; for inhibition of immune activation of CD4+T-cell subsets by PMA+Ionomycin (CD38, HLA-DR) / inhibition of immune activation of CD4+T-cell subsets by anti-CD3/CD28 antibody (CD38, HLA-DR): 72 hours; for inhibition of immune activation of CD4+T-cell subsets by anti-CD3/CD28 antibody (CD38, HLA-DR): Comparative example 3, isolated CD4+T-cells, anti-CD3/CD28 beads
Protocol: After 48 hours, the cells were stained with anti-human CD4, CD38, HLA-DR flow cytometry antibody (purchased from Invitrogen), and the CD4^+T-cells were gated by flow cytometry to detect the expression of CD38, HLA-DR molecules on the cell surface.
Freshly isolated healthy human PBMC (3×10^7 cells) were cultured in cell culture medium containing IL-2 (20 IU/mL), stimulated with PMA (100 nM) and Ionomycin (1 μM) for 72 hours, and the compound to be tested (100 ng/ml) was added at the same time: the cells were washed twice with FACS buffer, followed by addition of anti CD3-PerCP, CD4-PE, CD38-PE-Cy7. HLA-DR-APC antibodies, stained for 30 minutes at 4° C.: the cells were washed twice with FACS buffer, and the expression of the above molecules was detected by FACS.
CD4^+T-cells were isolated from freshly isolated healthy human PBMCs with anti-CD4 antibody-coated magnetic beads through positive screening and then cultured in a medium containing IL-2 (20 IU/mL). The cell activation was stimulated with anti-CD3/CD28 antibody-coated magnetic beads for 72 hours, and the compound to be tested was added at the same time. The cells were collected, washed twice with FACS buffer, followed by addition of anti CD3-PerCP, CD4-PE, CD38-PE-Cy7, HLA-DR-APC antibodies, stained at 4° C. for 30 minutes: the cells were washed twice with FACS buffer and collected, and the expression of the above molecules was detected by flow cytometry.

With `CC(C)[C@]12O[C@H]1[C@@H]1O[C@]13[C@]1(O[C@H]1C[C@@]1(O)C4=C(CC[C@]31C)C(=O)OC4)[C@@H]2O` [T8, (5R)-5-hydroxytriptolide] the “inhibition of the activity of the NF-κB signal pathway activated by TNF-α” value (NF-κB) was “effectively inhibit”, the “inhibition of the activity of the background NF-κB signaling pathway” value (NF-κB) was “effectively inhibit” and the “inhibition of background NF-κB activity (untreated with TNF-alpha)” value (NF-κB; Example 1, HEK293T, 100 nM, 24 h, FIG. 1) was “effectively inhibit”. The “inhibition of NF-κB activity stimulated by TNF-alpha” value (NF-κB; Example 1, HEK293T, TNF-alpha 20 ng/mL, 100 nM, 24 h, FIG. 1) was “effectively inhibit”, the “inhibition of the proliferation of CD4+T-cells in healthy human peripheral blood” value (CD4+T-cells) was “significantly inhibit” and the “proliferation of CD4+T cells stimulated by PHA (cell proliferation)” value (CD4+T-cells; Example 2, PBMC, PHA-P 5 μg/mL, 100 nM, 48 h, without compound 16.6%) was 1.9%. For the same molecule, the CC50 at 72 h (MTT cytotoxicity test) was roughly 0.435 µg/mL (≈ 1.16 µM), the “participants with a CD4 count increase over 50 cells/mm^3” value (CD4 counts; 0.5 mg daily (LT8), Week 48) was 45.1% and the “mean absolute increase of CD4 count from baseline” value (CD4 counts; 0.5 mg daily (LT8)) was 49 cells/mm^3. The “CD4 increase in participants with a baseline CD4 count 200-350 cells/mm^3” value (CD4 counts; 1 mg daily (HT8) over placebo) was “consistent superiority”, the “participants achieving a CD4 increase >20% (superiority)” value (CD4 counts; 1 mg daily (HT8), Week 48) was “unremarkable” and the “participants with a CD4 count increase over 50 cells/mm^3” value (CD4 counts; 1 mg daily (HT8), Week 48) was 50%. The “participants achieving a CD4 increase >20%” value (CD4 counts; 1 mg daily (HT8), week 24, versus other groups) was “more participants”, the “mean absolute increase of CD4 count from baseline” value (CD4 counts; 1 mg daily (HT8)) was 63 cells/mm^3 and the “mean increase of CD4 count in participants over 45 years old” value (CD4 counts; 1 mg daily, 48 weeks, placebo 20) was 96 cells/mm^3. The “CD4 count at Week 48” value (CD4 counts; 0.5 mg daily oral (LT8), 48 weeks) was 299 cells/mm^3, the “CD4 count at Week 48” value (CD4 counts; 1 mg daily oral (HT8), 48 weeks) was 303 cells/mm^3 and the “effect on CD4 in participants with a baseline CD4 count below 200 cells/mm^3” value (CD4 counts; Week 48) was “insignificant”. The “changes of CD4/CD8 ratio” value (CD4 counts; Week 48, between the three groups (0.5 mg, 1 mg, placebo)) was “comparable”, the “benefit in CD4 counts in participants receiving SARS-COV-2 vaccination” value (CD4 counts; high-dose (1 mg), stratified analysis) was “insignificant” and the “mean change of serum IP-10 level” value ([1]; 0.5 mg daily (LT8)) was -42.5 pg/mL. The “mean change of serum interferon-γ-induced protein 10” value ([1]; 1 mg daily (HT8), 48 weeks) was −72.1, the “mean change of serum IP-10 level” value ([1]; 1 mg daily (HT8)) was -72.1 pg/mL and the “change of HsCRP” value [2] was “slight decrease”. The “change of IL-6” value (IL-6) was “slight decrease”, the “surface expressions of CD38 or HLA-DR on CD8 T cells” value (CD8 T cells) was “comparable” and the “participants with treatment-emergent adverse events (TEAEs)” value ([3]; 0.5 mg daily (LT8), 48 weeks) was 84.3%. For the same molecule, the “drug-related SAEs” value ([3]; 0.5 mg or 1 mg daily, 48 weeks) was “No drug-related SAEs were reported”, the tolerability ([3]; 0.5 mg or 1 mg daily, all participants) was “well-tolerated” and the “participants with treatment-emergent adverse events (TEAEs)” value ([3]; 1 mg daily (HT8), 48 weeks) was 89.1%. For the same molecule, the “TEAEs ≥Grade 3” value ([3]; 1 mg daily (HT8), mostly neutrophil decrease and dyslipidemia) was “slightly more frequent”, the “virological suppression during the study” value (HIV-1) was “virologically-suppressed” and the “inhibition of immune activation of CD4+T-cell subsets by PMA+Ionomycin (CD38, HLA-DR)” value (CD4+T-cell subsets) was “significantly inhibit”. For the same molecule, the “inhibition of immune activation of CD4+T-cell subsets by anti-CD3/CD28 antibody (CD38, HLA-DR)” value (CD4+T-cell subsets) was “significantly inhibit”, the HLA-DRCD4/CD4 (CD4+T-cell subsets; Example 3, PBMC, PMA 20 nM + Ionomycin 1 μM, 100 nM, 48 h, without compound 36.3%) was 3.5% and the CD38CD4/CD4 (CD4+T-cell subsets; Example 3, PBMC, PMA 20 nM + Ionomycin 1 μM, 100 nM, 48 h, without compound 41.6%) was 31%.
For `CC(C)[C@]12O[C@H]1[C@@H]1O[C@]13[C@]1(O[C@H]1C[C@H]1C4=C(CC[C@@]13C)C(=O)OC4)[C@@H]2O` [triptolide], the “inhibition of the activity of the NF-κB signal pathway activated by TNF-α” value (NF-κB) was “effectively inhibit”, the “inhibition of the activity of the background NF-κB signaling pathway” value (NF-κB) was “effectively inhibit” and the “inhibition of the proliferation of CD4+T-cells in healthy human peripheral blood” value (CD4+T-cells) was “significantly inhibit”. For the same molecule, the CC50 at 72 h (MTT cytotoxicity test) was roughly 0.017 µg/mL (≈ 0.0472 µM), the “inhibition of immune activation of CD4+T-cell subsets by PMA+Ionomycin (CD38, HLA-DR)” value (CD4+T-cell subsets) was “significantly inhibit” and the “inhibition of immune activation of CD4+T-cell subsets by anti-CD3/CD28 antibody (CD38, HLA-DR)” value (CD4+T-cell subsets) was “significantly inhibit”.
